Results: ChEMBL document CHEMBL1137138, “Synthesis and antiviral activity of P1' arylsulfonamide azacyclic urea HIV protease inhibitors” (Bioorg Med Chem Lett, 2004)

Columns and labels:
[1] = Antiviral activity against HIV virus; type: functional
[2] = Antiviral activity against HIV virus in presence of 50% human serum; type: functional
[3] = Antiviral activity against HIV virus in absence of human serum; type: functional
[4] = biological target: Human immunodeficiency virus type 1 protease (Human immunodeficiency virus 1, UniProt Q72874); assay: Tested for inhibition of HIV protease

| SMILES | EC50 [1] [nM] | EC50 [2] [nM] | EC50 [3] [nM] | other results |
| --- | --- | --- | --- | --- |
| O=C1N(Cc2ccc(O)cc2)[C@H](Cc2ccccc2)[C@H](O)CN(S(=O)(=O)c2cc(Cl)cc(Cl)c2)N1Cc1ccc(O)cc1 | 670 |  |  |  |
| CCCCN1C(=O)N(Cc2cccc(C(=N)NO)c2)[C@H](Cc2ccccc2)[C@H](O)CN1S(=O)(=O)c1cccc(OC)c1 |  | 560 |  |  |
| O=C1N(Cc2ccc(O)cc2)[C@H](Cc2ccccc2)[C@H](O)CN(S(=O)(=O)c2ccc(C(F)(F)F)cc2)N1Cc1ccc(O)cc1 | 1100 |  |  |  |
| CCCCN1C(=O)N(Cc2cccc(C(=N)NO)c2)[C@H](Cc2ccccc2)[C@H](O)CN1S(=O)(=O)c1cccc(/C(C)=N\O)c1 |  | 400 | 20 |  |
| O=C1N(Cc2ccc(O)cc2)[C@H](Cc2ccccc2)[C@H](O)CN(S(=O)(=O)c2ccc(Cl)c(Cl)c2)N1Cc1ccc(O)cc1 | 940 |  |  |  |
| Cc1ccc(S(=O)(=O)N2C[C@@H](O)[C@@H](Cc3ccccc3)N(Cc3ccc(O)cc3)C(=O)N2Cc2ccc(O)cc2)cc1 | 870 |  |  |  |
| CCCCN1C(=O)N(Cc2cccc(C(=N)NO)c2)[C@H](Cc2ccccc2)[C@H](O)CN1S(=O)(=O)c1cccc(N)c1 |  | 2380 | 30 |  |
| O=C(c1ccccc1)N1C[C@@H](O)[C@@H](Cc2ccccc2)N(Cc2ccc(O)cc2)C(=O)N1Cc1ccc(O)cc1 |  |  |  | Ki [4]: 0.01 nM |
| O=C1N(Cc2ccc(O)cc2)[C@H](Cc2ccccc2)[C@H](O)CN(S(=O)(=O)c2ccccc2)N1Cc1ccc(O)cc1 | 450 |  |  | Ki [4]: 1.37 nM |
| CCCCN1C(=O)N(Cc2cccc(C(=N)NO)c2)[C@H](Cc2ccccc2)[C@H](O)CN1S(=O)(=O)c1cccc(C(C)=O)c1 |  | 1090 | 150 |  |
| N#Cc1cccc(S(=O)(=O)N2C[C@@H](O)[C@@H](Cc3ccccc3)N(Cc3ccc(O)cc3)C(=O)N2Cc2ccc(O)cc2)c1 | 200 |  |  |  |
| CCCCN1C(=O)N(Cc2cccc(C(=N)NO)c2)[C@H](Cc2ccccc2)[C@H](O)CN1S(=O)(=O)c1cccc(C(C)O)c1 (stereo not given in full) |  | 850 | 40 |  |
| O=C1N(Cc2ccc(O)cc2)[C@H](Cc2ccccc2)[C@H](O)CN(S(=O)(=O)c2cccc(F)c2)N1Cc1ccc(O)cc1 | 590 |  |  |  |
| CCCCN1C(=O)N(Cc2cccc(C(=N)NO)c2)[C@H](Cc2ccccc2)[C@H](O)CN1S(=O)(=O)c1cccc(O)c1 |  | 2560 | 150 |  |
| O=C1N(Cc2ccc(O)cc2)[C@H](Cc2ccccc2)[C@H](O)CN(S(=O)(=O)c2ccc(Cl)cc2Cl)N1Cc1ccc(O)cc1 | 3200 |  |  |  |
| CCCCN1C(=O)N(Cc2cccc(C(=N)NO)c2)[C@H](Cc2ccccc2)[C@H](O)CN1S(=O)(=O)c1cccc(Br)c1 |  | 2490 | 160 |  |
| Cc1cccc(S(=O)(=O)N2C[C@@H](O)[C@@H](Cc3ccccc3)N(Cc3ccc(O)cc3)C(=O)N2Cc2ccc(O)cc2)c1 | 920 |  |  |  |
| O=C1N(Cc2ccc(O)cc2)[C@H](Cc2ccccc2)[C@H](O)CN(S(=O)(=O)c2cccc([N+](=O)[O-])c2)N1Cc1ccc(O)cc1 | 810 |  |  |  |
| O=C1N(Cc2ccc(O)cc2)[C@H](Cc2ccccc2)[C@H](O)CN(S(=O)(=O)c2cccc(Cl)c2Cl)N1Cc1ccc(O)cc1 | 560 |  |  |  |
| O=C1N(Cc2ccc(O)cc2)[C@H](Cc2ccccc2)[C@H](O)CN(S(=O)(=O)c2cccc(Br)c2)N1Cc1ccc(O)cc1 | 420 |  |  |  |
| O=C1N(Cc2ccc(O)cc2)[C@H](Cc2ccccc2)[C@H](O)CN(S(=O)(=O)c2ccc(Cl)cc2)N1Cc1ccc(O)cc1 | 1100 |  |  |  |
| Cc1ccccc1S(=O)(=O)N1C[C@@H](O)[C@@H](Cc2ccccc2)N(Cc2ccc(O)cc2)C(=O)N1Cc1ccc(O)cc1 | 230 |  |  |  |
| CCCCN1C(=O)N(Cc2cccc(C(=N)NO)c2)[C@H](Cc2ccccc2)[C@H](O)CN1S(=O)(=O)c1cccc([N+](=O)[O-])c1 |  | 370 | 40 |  |
| C=Cc1cccc(S(=O)(=O)N2C[C@@H](O)[C@@H](Cc3ccccc3)N(Cc3cccc(C(=N)NO)c3)C(=O)N2CCCC)c1 |  | 1860 | 220 |  |
| COc1cccc(S(=O)(=O)N2C[C@@H](O)[C@@H](Cc3ccccc3)N(Cc3ccc(O)cc3)C(=O)N2Cc2ccc(O)cc2)c1 | 460 |  |  |  |
| COc1ccc(S(=O)(=O)N2C[C@@H](O)[C@@H](Cc3ccccc3)N(Cc3ccc(O)cc3)C(=O)N2Cc2ccc(O)cc2)cc1 | 750 |  |  |  |
